Results reported in US9101613B2, “Methods for treating neurological disease” (Neurim Pharmaceuticals (1991) Ltd., priority 2006, dated 2015).
Read-outs that look alike come from different tables or passages of the source. Marks after values point to notes of the source that are not given here.

Experiments:
[1] = target: T1, 5-HT2A receptor (Homo sapiens, UniProt P28223); assay: Serotonin receptor binding, [3H] Ketanserin, CHO-K1 membranes
T1 construct: expressed in transfected cells; host or cells: CHO-K1
Protocol: (§1) Aliquots of suspended membranes of human recombinant CHO-K1 cells stably expressing human 5-HT1A, 5-HT2A, 5-HT1B, 5-HT2B, 5-HT2C, 5-HT4, 5-HT6 or 5-HT7 receptors were pre-incubated at 25° C. with 1.5 nM [^3H] 8-OH-DPAT (5-HT1A), 1.5 nM [^3H] Ketanserin (5-HT2A), 0.01 nM [^125I] Cyanopindolol (5-HT1B), 1 nM [^3H] Mesulergine (5-HT2c), 0.7 nM [^3H] GR-113808 (5-HT4) or at 37° C. 1.2 nM [^3H] LSD (5-HT2B, 5-HT6 and 5-HT7) in buffer (50 mM Tris-HCl, pH 7.7) alone or in the presence of 1 nM, 10 nM, 0.1 μM, 1 μM, and 10 μM of N-[2-(5-methoxy-indol-3-yl)-ethyl]-commenamide, N-[2-(5-methoxy-indol-3-yl)-ethyl]-coumalylamide, N-[2-(5-methoxy-indol-3-yl)-ethyl]-comanilamide, N-[2-(5-methoxy-indol-3-yl)-ethyl]-2-methoxy-commenamide or N-[2-(5-methoxy-indol-3-yl)-ethyl]-chelidonamide for 60 minutes. The binding reaction was terminated and washed with 4 ml ice-cold 50 mM Tris-HCl buffer by vacuum filtration. Membranes were then collected, and the filters containing the bound ligands were assayed for the amount of radioactivity in a b-counter. Non-specific binding was evaluated using a reaction with 10 μM metergoline (5-HT1A), 1 μM mianserin (5-HT2A and 5-HT2c) or 10 μM serotonin (5-HT1B, 5-HT2B, 5-HT4, 5-HT6 and 5-HT7).

[2] = target: T2, 5-HT2C receptor (Homo sapiens, UniProt P28335); assay: Serotonin receptor binding, [3H] Mesulergine, CHO-K1 membranes
T2 construct: expressed in transfected cells; host or cells: CHO-K1
T2 sequence (P28335 33-458): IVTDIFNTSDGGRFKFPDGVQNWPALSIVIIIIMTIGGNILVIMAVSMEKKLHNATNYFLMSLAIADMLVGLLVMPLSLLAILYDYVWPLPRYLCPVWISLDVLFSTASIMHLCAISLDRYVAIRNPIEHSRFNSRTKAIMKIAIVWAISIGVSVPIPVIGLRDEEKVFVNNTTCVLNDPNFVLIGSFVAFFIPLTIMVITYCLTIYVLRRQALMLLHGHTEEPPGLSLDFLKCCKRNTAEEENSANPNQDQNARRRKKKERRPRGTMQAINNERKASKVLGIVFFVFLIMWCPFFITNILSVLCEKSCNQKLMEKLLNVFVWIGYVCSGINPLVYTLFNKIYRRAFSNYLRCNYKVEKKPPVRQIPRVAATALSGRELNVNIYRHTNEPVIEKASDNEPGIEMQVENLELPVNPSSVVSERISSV
Protocol: as §1

[3] = test system: C57BL/6 mice; assay: MPTP mouse model of Parkinson's disease, pole test; type: in vivo
Source text: (§2) Three-month-old male C57BL/6 mice were housed in groups of 5 animals per cage (50 cm×25 cm×20 cm) in a temperature- and humidity-controlled environment with ad libitum access to food and water. Animals were maintained on a 12 hr light/dark schedule, with lights on at 7 A.M.
(§3) Six groups of mice were used: (1) the control mice treated with saline and vehicle (n=10), (2) the N-[2-(5-methoxy-indol-3-yl)-ethyl]-comanilamide control mice treated with saline and N-[2-(5-methoxy-indol-3-yl)-ethyl]-comanilamide at 100 or 200 mg/kg (n=5, respectively), (3) the MPTP mice treated with MPTP and vehicle (n=10) and (4) the N-[2-(5-methoxy-indol-3-yl)-ethyl]-comanilamide-treated MPTP mice treated with MPTP and N-[2-(5-methoxy-indol-3-yl)-ethyl]-comanilamide at 100 or 200 mg/kg (n=10, respectively). Mice received daily (i.p.) injections of saline or MPTP (30 mg/kg/day) dissolved in physiological saline for five consecutive days to induce Parkinsonism. N-[2-(5-methoxy-indol-3-yl)-ethyl]-comanilamide or vehicle was administered (i.p.) once per day for 17 days, starting on the first day of MPTP injections. Open field test, pole test, forepaw stride length test and traction test were conducted on day 14, 15, 16 and 17 after the first injections of MPTP, respectively.
In the pole test, the mouse was placed head upward on the top of a vertical wooden rough-surfaced pole (diameter: 1 cm, height: 50 cm), then allowed to descend five times. Each mouse was habituated to the apparatus two sessions (one session per day) before the day of first MPTP injections. The total time until the mouse reached the floor with its four paws was recorded (T-total) as well as the time needed for the mouse to turn completely head downward (T-turn). For each session of five descents, the best performance was kept for the T-turn and T-total. If the mouse was unable to turn completely downwards, fell or slipped down, the default value of 20 s was taken into account.

[4] = test system: C57BL/6 mice; assay: MPTP mouse model of Parkinson's disease, striatal dopamine, DOPAC and HVA levels (HPLC); type: in vivo
Source text: as §2, §3
To measure striatal dopamine, DOPAC and HVA levels, mice were sacrificed at day 17 after the final injection of MPTP. The striata were dissected and stored at −70° C. before assays. Striatal dopamine levels were measured by high performance liquid chromatography (HPLC) with electrochemical detection.

[5] = test system: mice; assay: Rotarod assay, interaction with diazepam; type: in vivo; conditions: for Incidence of performance (rotarod): 15 rpm; for effect on rotarod performance: compound alone i.p., 15 rpm rotation speed;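 on Incidence of performance (rotarod): Success means running more than 120 min on the rod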
Protocol: The incidences of animals running more than […] on the rotating rod were noted, and significances were calculated by non-parametric x^2 test. 8 mice/group were used.
The rotarod apparatus is divided into five test zones, so that up to five mice may be tested at the same time. The rod has been specially machined to provide a suitable grip for the animal. The diameter of the rod is 3.5 cm. The rotation speed was 15 rpm. When the animal falls off the rotating rod, it presses a button to record automatically the time spent on the rod. On the day before the experiment the mice were trained to run on the rod rotating with 15 rpm. Diazepam was administered orally 60 min before the rotarod assay, test substances were administered intraperitoneally 15 min before testing.

[6] = saline mice, 100 or 200 mg/kg i.p., both p>0.05
[7] = MPTP mice, 100 or 200 mg/kg/day i.p.
[8] = Diazepam 1.5 mg/kg p.o. + compound 5 mg/kg i.p.
[9] = Diazepam 1.5 mg/kg p.o. + compound 20 mg/kg i.p.
[10] = Diazepam 1.5 mg/kg p.o. + compound 50 mg/kg i.p.
[11] = Vehicle p.o. + compound 5 mg/kg i.p.
[12] = Vehicle p.o. + compound 20 mg/kg i.p.
[13] = Vehicle p.o. + compound 50 mg/kg i.p.

T1 sequence (P28223 whole entry): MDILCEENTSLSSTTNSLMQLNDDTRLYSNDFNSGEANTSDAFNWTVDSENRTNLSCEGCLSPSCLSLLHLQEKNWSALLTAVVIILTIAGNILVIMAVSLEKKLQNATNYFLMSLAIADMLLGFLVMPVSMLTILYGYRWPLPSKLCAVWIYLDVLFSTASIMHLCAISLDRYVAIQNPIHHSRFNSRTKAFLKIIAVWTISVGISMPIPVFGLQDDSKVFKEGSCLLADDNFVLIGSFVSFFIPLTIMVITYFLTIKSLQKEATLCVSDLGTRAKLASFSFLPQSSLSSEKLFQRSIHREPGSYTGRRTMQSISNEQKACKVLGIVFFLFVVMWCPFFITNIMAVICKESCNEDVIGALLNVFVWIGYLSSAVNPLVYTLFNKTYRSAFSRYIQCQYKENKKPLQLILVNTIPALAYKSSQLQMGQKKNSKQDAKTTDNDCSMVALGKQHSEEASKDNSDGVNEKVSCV

SMILES	IC50 [1] [µM]	Ki [1] [µM]	IC50 ([2]; read-out: 5-HT2C IC50) [µM]	Ki ([2]; read-out: 5-HT2C KI) [µM]	T-turn, pole test, vs MPTP mice ([3]; 100 mg/kg i.p., p<0.05)	T-turn, pole test, vs MPTP mice ([3]; 200 mg/kg i.p., p>0.05)	T-turn, pole test, vs control mice [3, 6]	striatal dopamine level vs MPTP mice ([4]; MPTP mice, 100 or 200 mg/kg i.p., p<0.01 and p<0.05, respectively)	striatal DOPAC level [4, 7]	striatal HVA level [4, 7]	striatal dopamine level vs control mice [4, 6]	Incidence of performance (rotarod) [5, 8]	Incidence of performance (rotarod) [5, 9]	Incidence of performance (rotarod) [5, 10]	Incidence of performance (rotarod) [5, 11]	Incidence of performance (rotarod) [5, 12]	Incidence of performance (rotarod) [5, 13]	effect on rotarod performance [5]	IC50 [2] [µM]	Ki [2] [µM]
COc1ccc2[nH]cc(CCNC(=O)c3cc(=O)cc(C(=O)O)o3)c2c1 [N-[2-5-methoxy-indol-3-yl)-ethyl]-chelidonamide]	7.5	2.14	11.2	5.8																
COc1ccc2[nH]cc(CCNC(=O)c3cc(=O)cco3)c2c1 [N-[2-(5-methoxy-indol-3-yl)-ethyl]-comanilamide]					showed less level of the T-turn	no significant difference in the T-turn	no significant difference in the T-turn	showed more level of dopamine concentration	ameliorated the MPTP-induced reductions	ameliorated the MPTP-induced reductions	no significant difference in dopamine level	4/8*	2/8***	1/8***	6/8	5/8	5/8	dose dependently impaired the performance		
COc1ccc2[nH]cc(CCNC(=O)c3cc(=O)c(O)co3)c2c1 [N-[2-(5-methoxy-indol-3-yl)-ethyl]-commenamide]												5/8	3/8**	1/8***	8/8	5/8	5/8	dose dependently impaired the performance	7.2	3.8
